Values of other authors as cited in patent US9681659B2, “Agrochemical formulation comprising encapsulated pesticide” (BASF SE, priority 2011, dated 2017).
≈ marks a conversion by molar mass, not a printed value.

Structure (SMILES): COc1cc(C)c(C(=O)c2c(OC)ccc(Br)c2C)c(OC)c1OC [metrafenon]
- solubilities in water (in water, examples for pesticide A): 0.5 mg/L

Structure (SMILES): CC1=CC(=O)CC(C)(C)C1 [isoporone]
- solubility values (in water) (all data at 20° C., examples for aprotic, polar solvent B): 15 g/L (≈ 109 mM)
